The results in this text go back to patent US20230040415A1 (PureTech LYT 100, Inc., priority 2020, published 2023).

In series [1] the test system is mouse tail model of lymphedema. The series can be described thus: Mouse tail model of lymphedema. The class given is in vivo. The following applies: once daily oral gavage, by 5 weeks; 7 animals per group.
The conditions of series [2]: human, in vivo.
Procedure: All Part 1 cohorts will be dosed every 12 hours with food for 5 days.
During the treatment period (Day 1 through Day 5), subjects will be administered their assigned study medication BID, every 12 h±0.25 h (with approximately 240 mL of non-carbonated water), 30 minutes after the start of consumption of their standardised breakfast or dinner (12 h apart). A standardised lunch will be served >4 h post breakfast and >4 h prior to dinner. An evening snack will be served >3 h following evening study medication administration. No additional fluids will be allowed during the 1 h pre- and post-doses. On Day 6, subjects will replicate mealtimes as scheduled on Day 1-5. To ensure study drug dosing every 12 hours, here is an example of meal and dosing schedule in Part 1: • Breakfast: meal to be served 30 mins prior to AM dosing. Breakfast must be completed within 30 mins of start time. • Lunch: meal to be served at least 4 h post-AM study drug dose. • Dinner: meal to be served at least 11.5 h post-AM dose and served 30 minutes prior to PM study drug dose. • Evening snack: Snack to be served at least 15 h post-AM dose (at least 3 h post-PM dose).
In Part 1, blood samples (4 mL each) for PK will be collected for Cohorts 1, 2, 3, 4, and 6 at specified times (hours) at each as follows: • Day 1 and Day 5: 0 (pre-dose), 0.5, 1, 1.5, 2, 2.5, 3, 3.5, 4, 6, 8, 12 (pre-dose), 13, 14, 15, 16, 18 h • Day 2, Day 3 and Day 4: 0 (pre-morning-dose) and 12 h (pre-evening-dose) • Day 6: 12, 18, 24 and 36 h post-last dose • Day 7: 48 h (post-last dose)
Pharmacokinetics for Day 1 to 3 in Part 2 (fed state) will be compared to PK for Day 1 to Day 3 in Part 2 (fasted state). Plasma PK parameters (non-compartmental or compartmental analysis as appropriate) will include, but are not limited to: • Following single dose: Tmax, tlag, Cmax, AUC0-4, AUC0-last, AUC0-inf, lambda z, % AUCext, CL/F, Vz/F, Cmax/D, AUC0-last/D, AUC0-inf/D and MRT (D is dose) • After repeated doses: Ctrough, Ctrough/D • Following repeated doses on last day: Tmax, Cmax, Cavg, tlag, t1/2, AUC0-4, AUC0-last, AUC0-inf, lambda z, % AUCext, CLss/F, Vzss/F, MRT, PTF, Rac(AUC), Rac(Cmax), Cmax/D, AUClast/D, AUC0-inf/D and Rac (accumulation ratio) Part 3 (Patients with Secondary Lymphoedema Post-Axillary/Post-Sentinel Node Dissection)
Series [3] has as its system L929 cells. The series can be described thus: TGF-induced collagen synthesis in L929 cells, 6-wells (SIRCOL). Type of series: cell-based. As to conditions: 500 μM. As to the method:
100,000 L929 cells were plated in complete DMEN and incubated until confluency for 3 days. Medium was removed and complete DMEM containing Prolin (20 μg/ml) and ascorbic acid (10 μM) was added. […] Cells were further incubated for 72 hrs. Supernatant was removed, cells were washed with cold PBS, 1 ml SIRCOL reagent was added onto the cells and cells were scraped off, samples were shaken for 5 h. at RT, centrifuged at 10.000 rpm for 5 min, supernatant was removed, pellet was dissolved in 0.5 M acetic acid to remove unbound dye, and re-centrifuged at 10.000 rpm for 5 min, supernatant was removed and final pelet was dissolved in 1 ml 0.5M NaOH, shaken at RT for 5 h, 100 μl of resulted solution was placed in 96-well and O.D was determined at 600.

The subject of series [4] is L929 cells. Nature of the series: TGF-induced soluble fibronectin synthesis in L929 cells (ELISA). The class given is cell-based. The following applies: 500 μM, in the absence and presence of TGF-β-induction. The text has this: Fibronectin is another important component of fibrotic lungs as it is induced by TGF-β and functions both as a structural component of extra cellular matrix as well as well as a ligand for integrin receptors. Just like soluble collagen, binding of fibronectin to integrin receptors induces the proliferation of fibroblast and epithelial cells of the lungs.

The next series concerns NASH mice. The series can be described thus: NASH mouse model (streptozotocin + high fat diet), liver histology. Type of series: in vivo. As to conditions: n = 8. The text has this: Non-alcoholic steatohepatitis (NASH) is characterized by lobular inflammation, hepatocyte ballooning and degeneration progressing to liver fibrosis. […] In addition, nine non-NASH mice were fed with a normal diet and monitored.

The test system of series [5] is Primary Mouse Lung Fibroblasts. The series can be described thus: TGF-β-induced soluble fibronectin ELISA. Type of series: cell-based. The following applies: Fibroblast. How it is done: (§1) Approximately 5,000 primary mouse lung fibroblasts were plated in complete DMEM in 96 well plates and incubated for 3 days at which time the cultures achieved confluency. After cells reached to confluency, medium was removed and fresh DMEM supplemented with ascorbic acid (20 μg/ml) and prolin (10 μM) was added. […] One hour later, TGF-β (5 ng/ml) was added to the appropriate cultures at a final concentration. After 72 hours, 200 μl samples of the supernatant were placed onto an ELISA plate and incubated overnight. After blocking with %1 BSA for 2 h, plates were incubated with either an anti-collagen type I antibody or an anti-fibronectin antibody.
(§2) The plates were washed after 1 hour and incubated with secondary horseradish peroxidase-conjugated antibodies (anti-goat for the collagen antibody, anti-rabbit for the fibronectin antibody). After a series of washing steps the color reagent TMB (3,3′,5,5′-Tetramethylbenzidine) was added and 15 minutes later the reactions were terminated with equal volumes of 2 N H2SO4. The levels of soluble collagen and fibronectin were determined by evaluating absorbance at 450 nm.
For orientation: An ELISA detects its analyte on a solid surface through an enzyme-linked reagent.

A short description of series [6]: Food effect study Part 2, single 500 mg dose fed vs fasted. The following applies: human, plasma, oral, 500 mg, LYT-100 @500 mg single dose, analyte = label. Type of series: in vivo, human. As to the method: The comparison will be based on Day 1, Day 2 and Day 3 PK plasma samples after the first dose of study drug on Day 1 under fast and fed conditions of Part 2.
Subjects will be admitted to the CRU on Day −1 and will fast overnight for at least 10 h.

In series [7] the test system is L929 cells. The series can be described thus: Survival of L929 cells (MTT). Type of series: cell-based. The following applies: 500 μM, 72 hrs. As to the method:
Five thousand L929 cells were plated in completed DMEN and incubated until confluency for 3 days. Medium was removed and complete DMEM containing Prolin (20 μg/ml) and ascorbic acid (10 uM) was added. […], of medium was removed, […], MTT solution was added for 4 hrs, then 100 μl of DMSO was added, and absorbance of developed dark pink color was determined at […].

For series [8], the system named is Primary Mouse Lung Fibroblasts. The series can be described thus: TGF-β-induced insoluble collagen synthesis, 96-well plate format (Sircol). The following applies: 500 μM, TGF-β 5 ng/ml, 72 hours, FIG. 4C; p=0.0003. Type of series: cell-based. How it is done:
Approximately 5,000 primary mouse fibroblasts were plated in complete DMEM in 96 well plates and incubated for 3 days at which time the cultures achieved confluency. After cells reached confluency, the medium was removed and fresh DMEM supplemented with ascorbic acid (20 μg/ml) and prolin (10 μMol) was added. […] One hour later, TGF-β was added to the appropriate cultures at a final concentration of 5 ng/ml. After 72 hours, the media was replaced with a 0.5% glutaraldehyde solution. After 30 minutes, the adherent cells were washed and subsequently incubated with acetic acid at a final concentration of 0.5M. After a 30 min room temperature incubation, and subsequent washing steps, the wells were incubated with Sircol reagent. After 5 hours, the unbound dye was removed and the plates were washed and allowed to dry. To extract collagen-bound Sircol, 100 μL of alkaline solution (0.5M NaOH) was added and plates were shaken for 1 h on rotary shaker at room temperature. Absorbance at 600 nm was determined to detect bound collagen.

Series [9] relates to Primary Mouse Lung Fibroblasts. The series can be described thus: TGF-β-induced soluble collagen ELISA. Type of series: cell-based. As to conditions: Fibroblast. How it is done: as §1, §2

Read-outs that look alike come from different tables or passages of the source.

One may read the inhibition as the percentage by which the read-out fell short of the control. With `[2H]C([2H])([2H])c1ccc(=O)n(-c2ccccc2)c1` [LYT-100, 5-(methyl-d3)-1-phenylpyridin-2-(1H)-one], the “tail swelling vs carboxymethylcellulose control” value in series [1] is “significantly reduced swelling”. Further, the “dose dependence of AUC96-108” value in [2] was “linear dose proportionality”. Moreover, in the series with L929 cells [3], the “collagen synthesis in the absence of added TGF-β” value is “significantly inhibits”. Also, in the series with L929 cells [3] (TGF-β 5 ng/ml, 72 hrs), the TGF-induced collagen synthesis result is “inhibits”. Moreover, in the series on L929 cells [4], the soluble fibronectin levels entry is listed as “significantly reduced”. The “NAS (mean ± SD)” value with NASH mice (30 mg/kg twice daily oral) turned out to be 4.0 ± 1.1. For the same molecule, in the series with NASH mice, the “Hepatocyte ballooning score 2 (Many cells/prominent ballooning), number of animals” value is listed as 8; the “Lobular Inflammation score 1 (<2 foci/200x), number of animals” value amounted to 5; the “Lobular Inflammation score 2 (2-4 foci/200x), number of animals” value came out at 3; the “Steatosis score 0 (<5%), number of animals” value turned out to be 4. Further, in the series on NASH mice, the “Steatosis score 1 (5-33%), number of animals” value stood at 3 and the “Steatosis score 2 (>33%-66%), number of animals” value was found to be 1. Further, the inhibition at 500 µM in [5] (TGF-β 5 ng/ml, 72 hours, p=0.0185, read-out: inhibition of TGF-β-dependent induction of soluble fibronectin) is 11%. The inhibition at 500 µM in series [5] (no TGF-β, p=0.03, read-out: inhibition of background level of soluble fibronectin) stood at 10%. Also, the AUC in series [6] (read-out: AUC, Fasted) was 60900 ng·h/mL. Moreover, the AUC in series [6] (read-out: AUC, Fed) was 49500 ng·h/mL. Also, the Cmax in [6] (read-out: Cmax, Fasted) came to 10300 ng/mL. In series [6] (read-out: Cmax, Fed), the Cmax amounted to 7900 ng/mL. For the same molecule, in the series on L929 cells [7], the “survival of L929 cells” value is “does not affect survival”. The “diminution of TGF-β-stimulated insoluble collagen accumulation” value in series [8] was 24%. Also, in series [9] (TGF-β 5 ng/ml, 72 hours, p=0.0001, read-out: inhibition of TGF-β-dependent increase of soluble collagen), the inhibition at 500 µM came to 36%. Also, in series [9] (no TGF-β, p=0.0115, read-out: inhibition of background level of soluble collagen), the inhibition at 500 µM came to 23%.
